Experimental findings from patent publication US20080182895A1 (priority 2006, published 2008) are described below.

The term IC50 denotes the concentration needed to halve the response being measured. In general, solubility refers to the concentration that dissolves in the medium under given conditions. Lower therefore signals little dissolved substance.

The test system of series [1] is Clone A cells (genotype 1b HCV replicon). The experiment in a line: Multiple treatments of Clone A cells, HCV RNA level. Format: cell-based, Hepatitis C virus. The text has this: The amounts of HCV RNA and rRNA in cell aliquots were estimated using a quantitative duplex TAQMAN® RT-PCR. The Y-axis represents HCV copies per μg of total cellular RNA (using rRNA as a marker for quantification). Each data point represents an average value from three replicates.
As a control, Clone A cells were passaged in parallel in the same medium containing 0.5% DMSO without compound. […] An aliquot of the cells from each passage was collected to monitor the HCV RNA levels.

In series [2] the test system is GAPDH mRNA in Clone A cells. Format: cell-based, human. The note with it: 0.1 and 1 μM HCV-796, throughout the 16-day period.
In series [3] the target is T1, HCV NS5B enzyme BB7-C316F (Hepatitis C virus genotype 1b, UniProt Q9WMX2, C2735F).
T1 construct: NS5B-BB7dCT21-His(C316F/S/Y/N); His (C); made in house; host or cells: E. coli
T1 sequence (Q9WMX2 2420-2989 C2735F): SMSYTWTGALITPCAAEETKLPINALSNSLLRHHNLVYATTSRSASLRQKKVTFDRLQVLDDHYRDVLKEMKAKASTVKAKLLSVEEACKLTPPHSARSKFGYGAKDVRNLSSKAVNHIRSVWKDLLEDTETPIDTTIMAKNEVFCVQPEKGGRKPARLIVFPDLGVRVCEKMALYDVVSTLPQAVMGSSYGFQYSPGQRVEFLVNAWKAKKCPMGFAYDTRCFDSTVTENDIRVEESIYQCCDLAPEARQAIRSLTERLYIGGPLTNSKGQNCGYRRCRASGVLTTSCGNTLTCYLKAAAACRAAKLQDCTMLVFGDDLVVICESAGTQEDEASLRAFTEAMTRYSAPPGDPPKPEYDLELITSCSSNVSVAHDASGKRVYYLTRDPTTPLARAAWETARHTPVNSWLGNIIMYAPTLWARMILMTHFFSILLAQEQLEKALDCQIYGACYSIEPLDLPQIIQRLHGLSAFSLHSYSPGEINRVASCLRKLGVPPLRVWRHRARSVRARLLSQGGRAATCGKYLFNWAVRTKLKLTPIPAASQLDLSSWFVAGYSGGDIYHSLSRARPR
Kind of series: NS5B polymerase biochemical assay. How it is done:
(§1) All NS5B enzymes were expressed and purified according to the protocol for NS5B-BB7dCT21-His as described (Howe et al. (2004) Antimicrobial Agents Chem. 48:4813-21). Briefly, expression plasmids were transformed into E. coli cells and NS5B expression was initiated by the addition of isopropyl-beta-D-thiogalactopyranoside (IPTG). After 4 to 6 hours of incubation the cells were harvested and lysed. NS5B enzymes were purified by chromatography using a nickel affinity column (Talon, B D Biosciences, Clontech Laboratories, Inc., Mountain View, Calif.)) followed by a cation exchange column (Poros H S, Applied Biosystems, Foster City, Calif.).

For series [4], the system named is HCV NS5B enzyme BB7-C316F. Kind of series: NS5B polymerase biochemical assay. Details: species or system Hepatitis C virus genotype 1b. The note with it: BB7-C316F vs BB7 (C316). On the procedure:
as §1

The target of series [5] is T2, HCV NS5B enzyme BB7-C316N (Hepatitis C virus genotype 1b, UniProt Q9WMX2, C2735N).
T2 construct: To prepare expression plasmid NS5B-BB7dCT21-His(C316N); His (C); made in house; host or cells: E. coli
T2 sequence (Q9WMX2 2420-2989 C2735N): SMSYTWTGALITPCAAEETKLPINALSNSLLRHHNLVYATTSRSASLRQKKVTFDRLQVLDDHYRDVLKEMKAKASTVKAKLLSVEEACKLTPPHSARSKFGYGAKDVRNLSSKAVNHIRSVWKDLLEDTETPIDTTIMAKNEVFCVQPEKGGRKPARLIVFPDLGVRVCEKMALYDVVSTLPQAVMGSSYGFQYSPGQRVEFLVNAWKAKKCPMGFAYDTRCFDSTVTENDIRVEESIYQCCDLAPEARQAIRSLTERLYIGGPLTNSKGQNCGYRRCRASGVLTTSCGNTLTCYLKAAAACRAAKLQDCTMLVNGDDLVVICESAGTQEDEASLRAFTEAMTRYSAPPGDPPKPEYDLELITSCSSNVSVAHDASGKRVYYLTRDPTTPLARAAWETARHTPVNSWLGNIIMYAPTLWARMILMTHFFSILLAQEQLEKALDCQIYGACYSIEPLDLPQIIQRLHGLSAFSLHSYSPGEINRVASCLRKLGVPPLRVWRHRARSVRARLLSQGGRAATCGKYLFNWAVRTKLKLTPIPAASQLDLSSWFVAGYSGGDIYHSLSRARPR
The experiment in a line: NS5B polymerase biochemical assay. How it is done:
as §1

In series [6] the test system is HCV NS5B enzyme BB7-C316N. Kind of series: NS5B polymerase biochemical assay. To be noted: BB7-C316N vs BB7 (C316). Details: species or system Hepatitis C virus genotype 1b. How it is done:
as §1

In series [7] the target is T3, HCV NS5B enzyme BB7-C316Y (Hepatitis C virus genotype 1b, UniProt Q9WMX2, C2735Y).
T3 construct: To prepare expression plasmid NS5B-BB7dCT21-His(C316Y); His (C); made in house; host or cells: E. coli
T3 sequence (Q9WMX2 2420-2989 C2735Y): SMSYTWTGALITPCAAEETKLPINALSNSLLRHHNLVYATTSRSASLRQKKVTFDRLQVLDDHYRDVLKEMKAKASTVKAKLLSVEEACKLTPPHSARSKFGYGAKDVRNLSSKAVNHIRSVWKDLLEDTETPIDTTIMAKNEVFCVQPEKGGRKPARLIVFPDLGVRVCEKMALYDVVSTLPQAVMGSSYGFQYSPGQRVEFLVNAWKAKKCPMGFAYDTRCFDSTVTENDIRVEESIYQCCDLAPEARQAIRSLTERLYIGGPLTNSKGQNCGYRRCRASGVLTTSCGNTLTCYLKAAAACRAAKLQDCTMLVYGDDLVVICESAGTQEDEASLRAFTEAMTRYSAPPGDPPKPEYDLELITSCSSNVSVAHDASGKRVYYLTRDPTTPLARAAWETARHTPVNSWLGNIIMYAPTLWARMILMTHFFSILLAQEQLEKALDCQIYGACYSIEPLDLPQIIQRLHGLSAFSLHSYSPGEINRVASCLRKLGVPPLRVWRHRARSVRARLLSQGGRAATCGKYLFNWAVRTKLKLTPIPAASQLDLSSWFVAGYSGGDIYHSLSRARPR
Kind of series: NS5B polymerase biochemical assay. How it is done:
as §1

Series [8] deals with HCV NS5B enzyme BB7-C316Y. Kind of series: NS5B polymerase biochemical assay. The note with it: BB7-C316Y vs BB7 (C316). The arrangement: species or system Hepatitis C virus genotype 1b. How it is done:
as §1

Series [9] addresses T4, HCV NS5B enzyme BB7-I363V (Hepatitis C virus genotype 1b, UniProt Q9WMX2, I2782V).
T4 construct: To prepare expression plasmid NS5B-BB7dCT21-His(1363V); His (C); made in house; host or cells: E. coli
Kind of series: NS5B polymerase biochemical assay. On the procedure:
as §1

Series [10] addresses T5, HCV NS5B enzyme BB7-M414I (Hepatitis C virus genotype 1b, UniProt Q9WMX2, M2833I).
T5 construct: To prepare expression plasmid NS5B-BB7dCT21-His(M414I); His (C); made in house; host or cells: E. coli
Kind of series: NS5B polymerase biochemical assay. How it is done: as §1

The test system of series [11] is HCV NS5B enzyme BB7-M414I. The experiment in a line: NS5B polymerase biochemical assay. Details: species or system Hepatitis C virus genotype 1b. To be noted: BB7-M414I vs BB7 (C316). On the procedure: as §1
For series [12], the target named is T6, HCV NS5B enzyme BB7-M414V (Hepatitis C virus genotype 1b, UniProt Q9WMX2, M2833V).
T6 construct: NS5B-BB7dCT21-His(M414T/V/I); His (C); made in house; host or cells: E. coli
T6 sequence (Q9WMX2 2420-2989 M2833V): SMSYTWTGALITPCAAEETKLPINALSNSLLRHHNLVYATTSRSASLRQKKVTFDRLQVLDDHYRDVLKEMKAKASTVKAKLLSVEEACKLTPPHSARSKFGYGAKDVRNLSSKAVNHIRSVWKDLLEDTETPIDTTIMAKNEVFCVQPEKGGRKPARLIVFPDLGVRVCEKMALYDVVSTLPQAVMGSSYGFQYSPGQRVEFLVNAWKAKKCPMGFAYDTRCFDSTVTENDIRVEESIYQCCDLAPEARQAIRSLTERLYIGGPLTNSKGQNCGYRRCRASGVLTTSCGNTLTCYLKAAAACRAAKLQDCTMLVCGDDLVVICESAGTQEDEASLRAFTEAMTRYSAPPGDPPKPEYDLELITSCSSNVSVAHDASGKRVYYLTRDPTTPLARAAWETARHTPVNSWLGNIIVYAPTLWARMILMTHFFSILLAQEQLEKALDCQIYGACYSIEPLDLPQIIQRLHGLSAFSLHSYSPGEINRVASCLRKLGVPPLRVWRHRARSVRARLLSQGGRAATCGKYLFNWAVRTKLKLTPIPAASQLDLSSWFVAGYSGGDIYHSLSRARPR
The experiment in a line: NS5B polymerase biochemical assay. On the procedure:
as §1

Series [13] has as its system HCV NS5B enzyme BB7-M414V. Kind of series: NS5B polymerase biochemical assay. The note with it: BB7-M414V vs BB7 (C316). Details: species or system Hepatitis C virus genotype 1b. On the procedure:
as §1

The target of series [14] is T7, HCV NS5B enzyme BK (N316) (Hepatitis C virus genotype 1b, UniProt P26663).
T7 construct: the NS5B enzyme derived from the genotype 1b BK isolate; His (C); made in house; host or cells: E. coli
T7 sequence (P26663 2420-2989): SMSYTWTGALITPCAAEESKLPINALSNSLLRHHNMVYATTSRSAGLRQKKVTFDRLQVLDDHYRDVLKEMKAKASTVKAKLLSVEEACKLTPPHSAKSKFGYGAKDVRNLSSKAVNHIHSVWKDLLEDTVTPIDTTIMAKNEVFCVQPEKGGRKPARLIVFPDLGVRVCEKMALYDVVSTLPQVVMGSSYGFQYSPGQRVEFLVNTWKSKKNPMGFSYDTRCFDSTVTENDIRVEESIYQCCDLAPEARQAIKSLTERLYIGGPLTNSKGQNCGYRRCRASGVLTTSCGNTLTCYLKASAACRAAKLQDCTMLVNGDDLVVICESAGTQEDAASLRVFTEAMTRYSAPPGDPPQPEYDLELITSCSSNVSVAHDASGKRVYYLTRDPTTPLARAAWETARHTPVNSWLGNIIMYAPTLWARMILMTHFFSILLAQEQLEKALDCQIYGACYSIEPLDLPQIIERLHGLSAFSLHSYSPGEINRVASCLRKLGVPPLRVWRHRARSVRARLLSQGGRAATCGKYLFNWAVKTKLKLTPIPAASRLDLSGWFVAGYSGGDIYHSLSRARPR
The experiment in a line: NS5B polymerase biochemical assay. On the procedure:
as §1

The next series has as its target T8, HCV NS5B enzyme BK-N316C (Hepatitis C virus genotype 1b, UniProt P26663, N2735C).
T8 construct: the NS5B enzyme derived from the genotype 1b BK isolate; His (C); made in house; host or cells: E. coli
The experiment in a line: NS5B polymerase biochemical assay. On the procedure: as §1

Another series in a line: physchem. To be noted: plasma or biological fluid.

Values after ≈ are worked out from the molar mass of the structure shown. Values joined by “and” are separate entries in the source; they are usually repeats but may differ in a detail not shown here. Identical values can stand only once.

T8 sequence (P26663 2420-2989 N2735C): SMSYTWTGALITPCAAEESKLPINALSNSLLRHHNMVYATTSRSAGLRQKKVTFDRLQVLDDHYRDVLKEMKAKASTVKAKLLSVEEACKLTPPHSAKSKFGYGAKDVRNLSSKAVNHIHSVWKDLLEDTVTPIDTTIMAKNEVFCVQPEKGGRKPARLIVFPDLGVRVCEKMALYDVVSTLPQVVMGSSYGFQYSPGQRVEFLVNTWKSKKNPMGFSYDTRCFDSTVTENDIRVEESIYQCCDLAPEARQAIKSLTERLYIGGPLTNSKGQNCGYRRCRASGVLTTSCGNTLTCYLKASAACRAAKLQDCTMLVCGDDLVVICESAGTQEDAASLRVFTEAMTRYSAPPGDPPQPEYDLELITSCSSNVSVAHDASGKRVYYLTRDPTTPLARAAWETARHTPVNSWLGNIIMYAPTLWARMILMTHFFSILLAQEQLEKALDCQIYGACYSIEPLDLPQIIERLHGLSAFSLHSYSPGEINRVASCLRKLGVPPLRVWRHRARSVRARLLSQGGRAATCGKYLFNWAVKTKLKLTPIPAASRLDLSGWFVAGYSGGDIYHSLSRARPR
T4 sequence (Q9WMX2 2420-2989 I2782V): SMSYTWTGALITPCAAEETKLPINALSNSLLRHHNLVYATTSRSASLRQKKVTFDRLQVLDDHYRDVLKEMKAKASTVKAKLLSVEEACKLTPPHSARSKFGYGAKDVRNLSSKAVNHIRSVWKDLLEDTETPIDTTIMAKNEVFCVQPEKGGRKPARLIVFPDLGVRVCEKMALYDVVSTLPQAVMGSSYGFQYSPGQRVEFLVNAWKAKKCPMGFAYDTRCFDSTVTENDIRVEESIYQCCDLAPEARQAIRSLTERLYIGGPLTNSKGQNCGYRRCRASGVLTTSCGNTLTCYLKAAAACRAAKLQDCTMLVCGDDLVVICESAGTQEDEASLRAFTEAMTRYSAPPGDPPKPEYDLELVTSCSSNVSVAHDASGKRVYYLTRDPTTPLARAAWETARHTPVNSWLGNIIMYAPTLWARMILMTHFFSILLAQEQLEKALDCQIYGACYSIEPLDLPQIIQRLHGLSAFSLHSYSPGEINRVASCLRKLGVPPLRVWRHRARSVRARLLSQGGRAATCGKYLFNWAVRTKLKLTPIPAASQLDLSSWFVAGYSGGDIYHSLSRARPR
T5 sequence (Q9WMX2 2420-2989 M2833I): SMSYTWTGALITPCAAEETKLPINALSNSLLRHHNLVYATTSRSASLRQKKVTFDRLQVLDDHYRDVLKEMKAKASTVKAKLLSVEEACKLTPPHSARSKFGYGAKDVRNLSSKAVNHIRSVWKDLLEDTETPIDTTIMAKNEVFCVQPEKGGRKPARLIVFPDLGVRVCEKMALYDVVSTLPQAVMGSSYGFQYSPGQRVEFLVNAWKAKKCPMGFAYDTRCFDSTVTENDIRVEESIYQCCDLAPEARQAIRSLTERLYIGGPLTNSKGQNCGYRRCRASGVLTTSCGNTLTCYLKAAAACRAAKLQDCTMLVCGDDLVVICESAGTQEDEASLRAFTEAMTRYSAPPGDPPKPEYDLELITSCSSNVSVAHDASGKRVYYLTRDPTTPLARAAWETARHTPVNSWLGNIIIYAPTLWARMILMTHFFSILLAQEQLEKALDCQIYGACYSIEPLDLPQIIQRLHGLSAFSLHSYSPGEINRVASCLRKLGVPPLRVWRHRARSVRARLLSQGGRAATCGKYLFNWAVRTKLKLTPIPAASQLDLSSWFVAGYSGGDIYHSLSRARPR

Regarding `CNC(=O)c1c(-c2ccc(F)cc2)oc2cc(N(CCO)S(C)(=O)=O)c(C3CC3)cc12` [HCV-796, 5-cyclopropyl-2-(4-fluorophenyl)-6-[(2-hydroxyethyl)(methylsulfonyl)amino]-N-methyl-1-benzofuran-3-carboxamide], the “decrease in the HCV RNA levels” value is given as “about 3.6 log10” in [1] (0.1 μM HCV-796, end of 16-day treatment) and ~4.2 log10 in series [1] (1 μM HCV-796, end of 16-day treatment). Besides, in [1] (hepatoma cells containing a subgenomic genotype 1b HCV replicon), the “reduction of HCV RNA levels” value is listed as 3-4 log10 HCV copies/μg total RNA. In addition, the “level of housekeeping gene GAPDH mRNA” value in [2] is on record as “remained essentially unchanged”. Besides, the IC50 worked out at 1510 ± 419 nM in series [3]; 81 ± 42 nM in [5]; 320 ± 10 nM in series [7]; 60 ± 10 nM in [9] (BB7-I363V enzyme); 24 ± 6 nM in series [10]; 28 ± 2 nM in series [12]. Also, the IC50 is 140 ± 50 nM in series [14] and 31 ± 4 nM at HCV NS5B enzyme BK-N316C. For the same molecule, the “Susceptibility Relative to Wild type Enzyme” value is reported as 124-fold less in [4]; 2-fold less in series [6]; 8-fold less in [8]; 1.5-fold less in [9] (BB7-I363V vs BB7 (C316)); 1.7-fold more in series [11]; 1.4-fold more in series [13]. Also, the “Susceptibility Relative to Wild type Enzyme” value at HCV NS5B enzyme BK-N316C (BK-N316C vs wild type BK (N316)) is 4.5 fold more and 4.5-fold more. In addition, the solubility in the series “physchem” came out at 56 µM (≈ 25 µg/mL).
